# Measured values as given in patent publication US6479435B1, “Diaryl ethers and processes for their preparation and herbicidal and desiccant compositions containing them” (ISK Americas Incorporated, priority 1997, dated 2002).
# What was measured:
# Type in all cases: in vivo
# [1] = tested on: soybean (Glycine max L., var. Pella 86, SOY); test: Post-emerge greenhouse test, crop damage rating; conditions: 14 days after application
# Method in brief: (§1)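 Scores use a 0 (no damage) to 100 (complete kill) scale, taken 14 days after a foliar spray. Acetone solutions with 0.25% v/v non-ionic surfactant were applied by track sprayer at 187 l/ha and 63-1000 g ai/ha to bottom-watered 2-3 leaf plants.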
# [2] = tested on: sicklepod (Cassia obtusifolia, CASOB); test: Post-emerge greenhouse herbicide test, phytotoxicity rating; conditions: 14 days after application
# Method in brief: as §1
# [3] = tested on: Johnsongrass (Sorghum halepense, SORHA); test: as above; conditions: 14 days after application
# Method in brief: as §1
# [4] = tested on: lambsquarters (Chenopodium album, CHEAL); test: as above; conditions: 14 days after application
# Method in brief: as §1
# [5] = tested on: barnyardgrass (Echinochloa crusgalli, ECHCG); test: as above; conditions: 14 days after application
# Method in brief: as §1
# [6] = tested on: green foxtail (Setaria viridis, SETVI); test: as above; conditions: 14 days after application
# Method in brief: as §1
# [7] = tested on: velvetleaf (Abutilon theophrasti, ABUTH); test: as above; conditions: 14 days after application
# Method in brief: as §1
# [8] = tested on: redroot pigweed (Amaranthus retroflexus, AMARE); test: as above; conditions: 14 days after application
# Method in brief: as §1
# [9] = tested on: ivyleaf morningglory (Ipomoea hederacea, IPOHE); test: as above; conditions: 14 days after application
# Method in brief: as §1
# [10] = tested on: large crabgrass (Digitaria sanguinalis, DIGSA); test: as above; conditions: 14 days after application
# Method in brief: as §1
# [11] = tested on: common ragweed (Ambrosia artemisiifolia L., AMBEL); test: as above; conditions: 14 days after application
# Method in brief: as §1
# [12] = tested on: upland rice (Oryza sp., var.Tebonnet, RICE); test: Post-emerge greenhouse test, crop damage rating; conditions: 14 days after application
# Method in brief: as §1
# [13] = tested on: field corn (Zea mays L., var. Dekalb 535, CORN); test: Post-emerge greenhouse test, crop damage rating; conditions: 14 days after application
# Method in brief: as §1
# [14] = tested on: sicklepod (Cassia obtusifolia, CASOB); test: Pre-emerge greenhouse herbicide test, phytotoxicity rating; conditions: 14 days after application, rating scale 0-100
# Method in brief: (§2)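 Visual 0–100 injury rating (100 = all plants dead) taken 14 days after treatment. Rates of 125–1000 g ai/ha in acetone, 187 l/ha, were sprayed onto soil one day post-sowing; pots were surface-watered to incorporate, then bottom-watered.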
# [15] = tested on: common ragweed (Ambrosia artemisiifolia L., AMBEL); test: as above; conditions: 14 days after application, rating scale 0-100
# Method in brief: as §2
# [16] = tested on: Johnsongrass (Sorghum halepense, SORHA); test: as above; conditions: 14 days after application, rating scale 0-100
# Method in brief: as §2
# [17] = tested on: lambsquarters (Chenopodium album, CHEAL); test: as above; conditions: 14 days after application, rating scale 0-100
# Method in brief: as §2
# [18] = tested on: barnyardgrass (Echinochloa crusgalli, ECHCG); test: as above; conditions: 14 days after application, rating scale 0-100
# Method in brief: as §2
# [19] = tested on: green foxtail (Setaria viridis, SETVI); test: as above; conditions: 14 days after application, rating scale 0-100
# Method in brief: as §2
# [20] = tested on: velvetleaf (Abutilon theophrasti, ABUTH); test: as above; conditions: 14 days after application, rating scale 0-100
# Method in brief: as §2
# [21] = tested on: redroot pigweed (Amaranthus retroflexus, AMARE); test: as above; conditions: 14 days after application, rating scale 0-100
# Method in brief: as §2
# [22] = tested on: ivyleaf morningglory (Ipomoea hederacea, IPOHE); test: as above; conditions: 14 days after application, rating scale 0-100
# Method in brief: as §2
# [23] = tested on: large crabgrass (Digitaria sanguinalis, DIGSA); test: as above; conditions: 14 days after application, rating scale 0-100
# Method in brief: as §2
# [24] = tested on: soybean (Glycine max L., var. Pella 86, SOY); test: Pre-emerge greenhouse test, crop damage rating; conditions: 14 days after application, rating scale 0-100
# Method in brief: as §2
# [25] = tested on: upland rice (Oryza sp., var.Tebonnet, RICE); test: Pre-emerge greenhouse test, crop damage rating; conditions: 14 days after application, rating scale 0-100
# Method in brief: as §2
# [26] = tested on: field corn (Zea mays L., var. Dekalb 535, CORN); test: Pre-emerge greenhouse test, crop damage rating; conditions: 14 days after application, rating scale 0-100
# Method in brief: as §2
structure (smiles),measurement,setting,value
Cc1nsc(Oc2cc(-n3nnn(CCCF)c3=O)c(F)cc2Cl)c1[N+](=O)[O-] [Compound 6-17],SOY crop damage rating (0-100),[1]; 63 g al/ha,0
same,SOY crop damage rating (0-100),[1]; 500 g al/ha,0
same,CASOB phytotoxicity rating (0-100),[2]; 63 g al/ha,0
same,CASOB phytotoxicity rating (0-100),[2]; 500 g al/ha,0
same,SORHA phytotoxicity rating (0-100),[3]; 63 g al/ha,0
same,SORHA phytotoxicity rating (0-100),[3]; 500 g al/ha,0
same,CHEAL phytotoxicity rating (0-100),[4]; 63 g al/ha,0
same,CHEAL phytotoxicity rating (0-100),[4]; 500 g al/ha,0
same,ECHCG phytotoxicity rating (0-100),[5]; 63 g al/ha,0
same,ECHCG phytotoxicity rating (0-100),[5]; 500 g al/ha,0
same,SETVI phytotoxicity rating (0-100),[6]; 63 g al/ha,0
same,SETVI phytotoxicity rating (0-100),[6]; 500 g al/ha,0
same,ABUTH phytotoxicity rating (0-100),[7]; 63 g al/ha,0
same,ABUTH phytotoxicity rating (0-100),[7]; 500 g al/ha,0
same,AMARE phytotoxicity rating (0-100),[8]; 63 g al/ha,0
same,AMARE phytotoxicity rating (0-100),[8]; 500 g al/ha,0
same,IPOHE phytotoxicity rating (0-100),[9]; 63 g al/ha,0
same,IPOHE phytotoxicity rating (0-100),[9]; 500 g al/ha,0
same,DIGSA phytotoxicity rating (0-100),[10]; 63 g al/ha,0
same,DIGSA phytotoxicity rating (0-100),[10]; 500 g al/ha,0
same,AMBEL phytotoxicity rating (0-100),[11]; 63 g al/ha,0
same,AMBEL phytotoxicity rating (0-100),[11]; 500 g al/ha,0
same,RICE crop damage rating (0-100),[12]; 63 g al/ha,0
same,RICE crop damage rating (0-100),[12]; 500 g al/ha,0
same,CORN crop damage rating (0-100),[13]; 63 g al/ha,0
same,CORN crop damage rating (0-100),[13]; 500 g al/ha,0
same,phytotoxicity rating CASOB,[14]; 125 g ai/ha,0
same,phytotoxicity rating CASOB,[14]; 500 g ai/ha,0
same,phytotoxicity rating AMBEL,[15]; 125 g ai/ha,0
same,phytotoxicity rating AMBEL,[15]; 500 g ai/ha,0
same,phytotoxicity rating SORHA,[16]; 125 g ai/ha,0
same,phytotoxicity rating SORHA,[16]; 500 g ai/ha,0
same,phytotoxicity rating CHEAL,[17]; 125 g ai/ha,0
same,phytotoxicity rating CHEAL,[17]; 500 g ai/ha,0
same,phytotoxicity rating ECHCG,[18]; 125 g ai/ha,0
same,phytotoxicity rating ECHCG,[18]; 500 g ai/ha,0
same,phytotoxicity rating SETVI,[19]; 125 g ai/ha,0
same,phytotoxicity rating SETVI,[19]; 500 g ai/ha,0
same,phytotoxicity rating ABUTH,[20]; 125 g ai/ha,0
same,phytotoxicity rating ABUTH,[20]; 500 g ai/ha,0
same,phytotoxicity rating AMARE,[21]; 125 g ai/ha,0
same,phytotoxicity rating AMARE,[21]; 500 g ai/ha,0
same,phytotoxicity rating IPOHE,[22]; 125 g ai/ha,0
same,phytotoxicity rating IPOHE,[22]; 500 g ai/ha,0
same,phytotoxicity rating DIGSA,[23]; 125 g ai/ha,0
same,phytotoxicity rating DIGSA,[23]; 500 g ai/ha,0
same,crop damage rating SOY,[24]; 125 g ai/ha,0
same,crop damage rating SOY,[24]; 500 g ai/ha,0
same,crop damage rating RICE,[25]; 125 g ai/ha,6
same,crop damage rating RICE,[25]; 500 g ai/ha,0
same,crop damage rating CORN,[26]; 125 g ai/ha,0
same,crop damage rating CORN,[26]; 500 g ai/ha,0
O=c1sc(=Nc2cc(Oc3ncccn3)c(Cl)cc2F)n2n1CCCC2 [Compound 7-2],SOY crop damage rating (0-100),[1]; 63 g al/ha,95
same,SOY crop damage rating (0-100),[1]; 500 g al/ha,100
same,CASOB phytotoxicity rating (0-100),[2]; 63 g al/ha,100
same,CASOB phytotoxicity rating (0-100),[2]; 500 g al/ha,100
same,SORHA phytotoxicity rating (0-100),[3]; 63 g al/ha,60
same,SORHA phytotoxicity rating (0-100),[3]; 500 g al/ha,100
same,CHEAL phytotoxicity rating (0-100),[4]; 63 g al/ha,100
same,CHEAL phytotoxicity rating (0-100),[4]; 500 g al/ha,100
same,ECHCG phytotoxicity rating (0-100),[5]; 63 g al/ha,40
same,ECHCG phytotoxicity rating (0-100),[5]; 500 g al/ha,95
same,SETVI phytotoxicity rating (0-100),[6]; 63 g al/ha,90
same,SETVI phytotoxicity rating (0-100),[6]; 500 g al/ha,100
same,ABUTH phytotoxicity rating (0-100),[7]; 63 g al/ha,100
same,ABUTH phytotoxicity rating (0-100),[7]; 500 g al/ha,100
same,AMARE phytotoxicity rating (0-100),[8]; 63 g al/ha,100
same,AMARE phytotoxicity rating (0-100),[8]; 500 g al/ha,100
same,IPOHE phytotoxicity rating (0-100),[9]; 63 g al/ha,100
same,IPOHE phytotoxicity rating (0-100),[9]; 500 g al/ha,100
same,DIGSA phytotoxicity rating (0-100),[10]; 63 g al/ha,30
same,DIGSA phytotoxicity rating (0-100),[10]; 500 g al/ha,85
same,AMBEL phytotoxicity rating (0-100),[11]; 63 g al/ha,100
same,AMBEL phytotoxicity rating (0-100),[11]; 500 g al/ha,100
same,RICE crop damage rating (0-100),[12]; 63 g al/ha,80
same,RICE crop damage rating (0-100),[12]; 500 g al/ha,95
same,CORN crop damage rating (0-100),[13]; 63 g al/ha,35
same,CORN crop damage rating (0-100),[13]; 500 g al/ha,90
same,phytotoxicity rating CASOB,[14]; 125 g ai/ha,60
same,phytotoxicity rating CASOB,[14]; 500 g ai/ha,100
same,phytotoxicity rating AMBEL,[15]; 125 g ai/ha,100
same,phytotoxicity rating AMBEL,[15]; 500 g ai/ha,100
same,phytotoxicity rating SORHA,[16]; 125 g ai/ha,95
same,phytotoxicity rating SORHA,[16]; 500 g ai/ha,100
same,phytotoxicity rating CHEAL,[17]; 125 g ai/ha,100
same,phytotoxicity rating CHEAL,[17]; 500 g ai/ha,100
same,phytotoxicity rating ECHCG,[18]; 125 g ai/ha,99
same,phytotoxicity rating ECHCG,[18]; 500 g ai/ha,100
same,phytotoxicity rating SETVI,[19]; 125 g ai/ha,100
same,phytotoxicity rating SETVI,[19]; 500 g ai/ha,100
same,phytotoxicity rating ABUTH,[20]; 125 g ai/ha,100
same,phytotoxicity rating ABUTH,[20]; 500 g ai/ha,100
same,phytotoxicity rating AMARE,[21]; 125 g ai/ha,100
same,phytotoxicity rating AMARE,[21]; 500 g ai/ha,100
same,phytotoxicity rating IPOHE,[22]; 125 g ai/ha,100
same,phytotoxicity rating IPOHE,[22]; 500 g ai/ha,100
same,phytotoxicity rating DIGSA,[23]; 125 g ai/ha,100
same,phytotoxicity rating DIGSA,[23]; 500 g ai/ha,100
same,crop damage rating SOY,[24]; 125 g ai/ha,0
same,crop damage rating SOY,[24]; 500 g ai/ha,80
same,crop damage rating RICE,[25]; 125 g ai/ha,90
same,crop damage rating RICE,[25]; 500 g ai/ha,100
same,crop damage rating CORN,[26]; 125 g ai/ha,45
same,crop damage rating CORN,[26]; 500 g ai/ha,70
